Read-outs that look alike come from different tables or passages of the source.

The conditions of data set [1]: human; cited from earlier work.
Data set [2] concerns chicken embryos. Conditions: for survival rate: 48 hours post drug application. The procedure: We then administered the compounds to developing chicken embryos to observe any teratogenic effects. […] At 48 hours post drug application both the survival rate and the incidence of defects were analyzed. A range of concentrations was tested to determine the effects and optimal concentration that was not 100% lethal.
Fertilized white leghorn chicken embryos purchased from Henry Stewart Ltd. (Herefordshire, United Kingdom) were maintained in an incubator as described previously. At Hamburger and Hamilton stage 18–20 (E2.5-3)[54] the eggs were windowed and the embryos were prepared for drug exposure. To establish a dose response the drugs were applied once to the embryos and growth was monitored as described previously. In a second set of experiments, filter paper squares were cut 100 μm × 100 μm and soaked in the compound of interest for 10 minutes. While the filter paper squares absorbed the solution, embryonic membranes were removed and the sponge was then placed onto the limb bud. The eggs were sealed with tape and returned to an incubator. The embryos were checked daily for developmental defects and to ensure the filter paper squares remained in place. Control embryos were treated with 100 μL PBS with 0.1% DMSO. Embryos were removed from the eggs and fixed in 5% TCA at 4 degrees for 24 hours. Embryos were then washed in alcian blue for 8 hours, and placed in acid ethanol over night before being dehydrated in 100% ethanol for three one hour treatments. The tissue was then cleared in methyl salicylate. Cartilage was imaged and subsequently measured using a graticule scale and ImageJ. A minimum of 8 embryos was used per drug, per concentration. All animal work was licensed and carried out in accordance with and with approval of UK Home Office and Institutional ethical and welfare guidelines.

Data set [3] relates to fli1:EGFP zebrafish embryos. The experiment in a line: fli1:EGFP zebrafish embryo exposure: survival and intersegmental vessel development. In kind it is in vivo. Conditions: for survival: 24 hours after exposure; for relative potency in reducing vessel outgrowth: concentration gradient, within 24 hours of drug exposure. The procedure: We then examined the extent and nature of the anti-angiogenic effects of the compounds using transgenic fli1:EGFP zebrafish embryos. The vasculature of these fish is tagged with EGFP and the transparency of the zebrafish allows for visualization of the forming blood vessels and any effect of anti-cancer drugs on their development over time (Fig. 4). A known anti-angiogenic and teratogenic compound (CPS49) was screened alongside the drugs as a positive control at 10 μg/mL (30 μM), a previously established anti-angiogenic concentration.
fli1:EGFP zebrafish were obtained from the Zebrafish international Resource Centre[29] and maintained in an approved aquarium habitat at 28 °C. At 24 hours post fertilization (hpf) the embryos were checked for GFP expression using a fluorescent microscope and manually dechorionated with forceps, exposed to either a vehicle control, or an anti-angiogenic anti-cancer compound (at 24 hpf) for 24 hours and imaged at 48 hpf. At this point the embryos were anaesthetized in 0.1% tricaine and the length and number of intersegmental vessels (ISV) were quantified as previously described. A minimum of 10 embryos were screened per drug, per concentration, and experiments were performed in triplicate.

In a further data set the test system is Mouse. Conditions: cited from earlier work.
The subject of data set [4] is chicken embryos. Conditions: cited from earlier work.
The test system of a further data set is HUVEC cells. The experiment in a line: Endothelial cell proliferation assay (CCK-8). In kind it is cell-based, Human. Conditions: 18 hours exposure, CCK-8 assay, n = 9. The procedure: Anti-angiogenic drugs were screened in a concentration gradient in the HUVEC culture assay. […] Cell proliferation was assessed using a CCK-8 assay (Dojindo). Statistical analysis by two-way Anova. Error represents the standard error of the mean.
HUVEC cells were purchased from ATCC (Manassas, VA) and cultured as previously described. No further authentication was performed. Cells were seeded at 6.5 × 10^4 cells per well in 100 μL of medium per well. Drugs were diluted in prewarmed DMEM. Serial dilutions were performed from 1000–0.1 nM. The cells were left to grow for 18 hours with exposure to vehicle control (DMSO) or drugs. Experiments were done in triplicate each time. Cellular proliferation was assessed using a CCK-8 assay (Dojindo, Rockville, MD). All plates were read at 450 nm.
(In general: Formazan colour is commonly taken as a measure of viable cells.)

The subject of a further data set is Rat. Conditions: cited from earlier work; for Systemic exposure (AUC) compared to human exposure: exposure at which defects were produced.
The next data set deals with Rabbit. Conditions: cited from earlier work; for Systemic exposure (AUC) compared to human exposure: exposure at which defects were produced.
The mark [5] stands for this setting: 2.5 μg/embryo, global treatment.

Regarding `CNC(=O)c1ccccc1Sc1ccc2c(/C=C/c3ccccn3)n[nH]c2c1` [Axitinib, axitinib], the “Clinical Toxicities” value in data set [1] is “Cardiotoxicity”. In addition, the survival rate was 55.5% in the data set on chicken embryos [2] (setting [5]) and “no embryos survived” with chicken embryos [2] (5 μg/embryo, global treatment). For the same compound, the “Defects produced in chicken embryos” value in the data set on chicken embryos [2] (Table 1 summary) was “Embryolethality increased, limb, growth inhibition, necrosis of YSM”. In addition, the “defects observed in treated embryos” value in the data set on chicken embryos [2] (global treatment, surviving embryos) is “most embryos exhibited necrosis within the surrounding YSM and hemorrhaging”. Besides, the results for the survival in data set [3] (10 μg/mL), in data set [3] (50 μg/mL) and in data set [3] (100 μg/mL) were 40%, 42.12% and 38.89%, respectively. Further, in the data set on Mouse (Mouse/Mice), the “Systemic exposure (AUC) compared to human exposure” value is given as 10×. Further, in the data set with Mouse (mouse, in vivo), the Defects produced entry is “Increased post implantation loss, cleft palate malformation, variation in skeletal ossification”.

`O=C1c2c(F)c(F)c(F)c(F)c2C(=O)N1c1ccc(F)cc1F` [CPS49]: the “anti-angiogenic activity in chicken embryo” value in the data set on chicken embryos [4] (10 μg/embryo) was “potent anti-angiogenic activity”. Also, the “Defects produced in chicken embryos” value in the data set with chicken embryos [2] (Table 1 summary) is “Embryolethality, cranial hemorrhaging, micropthalmia, limb defects, spine”. Moreover, the “blood vessel outgrowth and number of forming vessels” value in data set [3] (10 μg/mL (30 μM), versus vehicle control 0.1% DMSO) was “significant reduction in both blood vessel outgrowth and the number of forming vessels”. The same compound had a survival in data set [3] (10 μg/mL) of 50%. In the data set with HUVEC cells, the IC50 (commonly the concentration needed to halve the response being measured) is less than 50 nM.

In the case of `CO[C@H]1C[C@@H]2CC[C@@H](C)[C@@](O)(O2)C(=O)C(=O)N2CCCC[C@H]2C(=O)O[C@H]([C@H](C)C[C@@H]2CC[C@@H](OCCO)[C@H](OC)C2)CC(=O)[C@H](C)/C=C(\C)[C@@H](O)[C@@H](OC)C(=O)[C@H](C)C[C@H](C)/C=C/C=C/C=C/1C` [Everolimus, everolimus], the “Clinical Toxicities” value in data set [1] was “Stomatitis, noninfectious pneumonitis, rash, hyperglycemia and immunosuppression”. Moreover, the survival rate with chicken embryos [2] (5 μg/embryo, global treatment) worked out at 80%; with chicken embryos [2] (10 μg/embryo, global treatment), 62.5%. For the same compound, the “Defects produced in chicken embryos” value in the data set on chicken embryos [2] (in vivo) was “Embryolethality increased, limb, spine, microopthalmia, necrosis of YSM”. In addition, the “defects observed in treated embryos” value in the data set with chicken embryos [2] (in vivo) was “hemorrhaging, spinal cord twisting and necrosis in the YSM”. The values for the survival result in data set [3] (10 μg/mL), in data set [3] (50 μg/mL) and in data set [3] (100 μg/mL) were “did not impact the survival”, “did not impact the survival” and 35.71%, respectively. Also, in data set [3], the “relative potency in reducing vessel outgrowth” value is “least potent”. The Defects produced entry is “Increased resorption, pre- and post-implantation loss, decreased numbers of live fetuses, malformation and retarded skeletal development” with Rat (Rat); “Increased resorptions” in the data set on Rabbit (Rabbit). For the same compound, the entries for the “Systemic exposure (AUC) compared to human exposure” value in the data set on Rat (Rat) and in the data set on Rabbit (Rabbit) were 0.04× and 1.6×, respectively. This compound also returned an IC50 in the data set with HUVEC cells (Homo sapiens) of less than 10 nM.

Consider `Cc1ccc(Nc2nccc(N(C)c3ccc4c(C)n(C)nc4c3)n2)cc1S(N)(=O)=O` [Pazopanib, pazopanib], for which the “Clinical Toxicities” value in data set [1] is “Cardiotoxicity”. Moreover, the survival rate is recorded as 16% with chicken embryos [2] (1 μg/embryo, global treatment); 22% with chicken embryos [2] (setting [5]); 30% with chicken embryos [2] (5 μg/embryo, global treatment). Moreover, in the data set with chicken embryos [2] (Table 1 summary), the “Defects produced in chicken embryos” value is “Embryolethality increased, limb, spine, necrosis of YSM”. For the same compound, the “defects observed in treated embryos” value in the data set on chicken embryos [2] (in vivo) is “malformation of the blood vessels and necrosis in the YSM, and twisted spinal cords”. The survival entry is “did not affect the survival” in data set [3] (10 μg/mL), 83.33% in data set [3] (50 μg/mL) and 50% in data set [3] (100 μg/mL). The “relative potency in reducing vessel outgrowth” value in data set [3] is on record as “most potent”. Also, the Defects produced entry in the data set on Rat (Rat) was “Teratogenic, embryotoxic, fetotoxic & abortifacient. Cardiovascular malformations, incomplete/absent ossification, reduced fetal body weight, pre- and post-implantation embryolethality”; in the data set with Rabbit (Rabbit), “Increased post-implantation loss, abortion, 100% litter loss”. The “Systemic exposure (AUC) compared to human exposure” value in the data set with Rat (Rat) was 0.1×; with Rabbit (Rabbit), 0.02×. The “IC50, endothelial cell proliferation” value in the data set with HUVEC cells is given as “one of the highest IC50s in vitro”.

In the case of `CNC(=O)c1cc(Oc2ccc(NC(=O)Nc3ccc(Cl)c(C(F)(F)F)c3)cc2)ccn1` [Sorafenib, sorafenib], the “Clinical Toxicities” value in data set [1] is given as “Cardiotoxicity”. Also, the survival rate in the data set on chicken embryos [2] (5 μg/embryo, global treatment) amounted to 54.5%; with chicken embryos [2] (10 μg/embryo, global treatment) it was 47%. The “Defects produced in chicken embryos” value in the data set with chicken embryos [2] (in vivo) is reported as “Embryolethality increased, limb, growth inhibition, necrosis of YSM”. Also, the survival in data set [3] (10 μg/mL) was 18.18%; in data set [3] (50 μg/mL), 15.38%; in data set [3] (100 μg/mL) it was “No embryos survived”. Besides, the “relative potency in reducing vessel outgrowth” value in data set [3] is given as “most potent”. For the same compound, the Defects produced entry in the data set with Rat (Rat) was “Increased post implantation loss, resorptions, skeletal retardations, retarded fetal weight”; with Rabbit (Rabbit), “Increased post implantation loss, resorptions, skeletal retardations, retarded fetal weight”. Further, the “Systemic exposure (AUC) compared to human exposure” value in the data set on Rat (Rat) and in the data set with Rabbit (Rabbit) was 0.008× in each case. This compound also yielded an IC50 in the data set on HUVEC cells (Homo sapiens) of less than 50 nM.

With `CCN(CC)CCNC(=O)c1c(C)[nH]c(/C=C2\C(=O)Nc3ccc(F)cc32)c1C` [Sunitinib, sunitinib], in data set [1], the “Clinical Toxicities” value is recorded as “Cardiotoxicity”. The survival rate with chicken embryos [2] (5 μg/embryo, global treatment) is 72%. In the data set with chicken embryos [2] (in vivo), the “Defects produced in chicken embryos” value was “Embryolethality increased, limb, spinal, microopthalmia, growth inhibition, necrosis of YSM”. In addition, the “defects observed in treated embryos” value in the data set with chicken embryos [2] (in vivo) is “in most embryos limb defects were observed, some also exhibited microopthalmia and spinal cord twisting”. The survival is reported as 61.90% in data set [3] (10 μg/mL), 21.05% in data set [3] (50 μg/mL) and 0% in data set [3] (100 μg/mL). In addition, the “relative potency in reducing vessel outgrowth” value in data set [3] is on record as “most potent”. Also, the entries for the “Systemic exposure (AUC) compared to human exposure” value in the data set on Rat (Rat) and with Rabbit (Rabbit) were 5.5× and 0.3×, respectively. The Defects produced entry in the data set with Rat (rat, in vivo) is “Embryolethality increased, fetal skeletal malformations (ribs/vertebrae)”; with Rabbit (rabbit, in vivo), “Increased embryolethality, cleft palate malformations”. Also, in the data set with HUVEC cells (Homo sapiens), the IC50 was less than 10 nM.

As to `COc1cc2c(Nc3ccc(Br)cc3F)ncnc2cc1OCC1CCN(C)CC1` [Vandetanib, vandetanib], the “Clinical Toxicities” value in data set [1] is given as “Cardiotoxicity”. In addition, the survival rate result with chicken embryos [2] (5 μg/embryo, global treatment) is on record as “no death occurred”; in the data set with chicken embryos [2] (10 μg/embryo, global treatment) it was 74%. The “Defects produced in chicken embryos” value with chicken embryos [2] (Table 1 summary) was “Embryolethality increased, limb, spine, microopthalmia, necrosis of YSM”. Also, the “defects observed in treated embryos” value in the data set on chicken embryos [2] (in vivo) was “limb reductions, micropthalmia, twisted spinal cords, and necrosis and hemorrhaging in the YSM”. For the same compound, the results for the survival in data set [3] (10 μg/mL), in data set [3] (50 μg/mL) and in data set [3] (100 μg/mL) were 60%, 15.38% and 10%, respectively. The “relative potency in reducing vessel outgrowth” value in data set [3] is recorded as “least potent”. Besides, in the data set with Rat (Rat), the Defects produced entry is reported as “Increased pre- & post-implantation loss, malformations of heart vessels, skeletal variations, delayed ossification of the skull, vertebrae & sternum”.

As for `Nc1cccc2c1C(=O)N(C1CCC(=O)NC1=O)C2=O` (stereo not drawn) [pomalidomide], in the data set with chicken embryos [4] (at potent anti-inflammatory doses), the “teratogenicity in chicken embryos” value is given as “not teratogenic”.

Consider bevacizumab, for which, in the data set with Rat (rat, in vivo), the embryotoxicity in rats entry is recorded as “embryotoxicity” and the “placental transfer in rats” value is listed as “dose-dependent placental transfer”. For the same compound, in the data set on Rabbit (rabbit, in vivo, iv), the teratogenicity in rabbits entry is “teratogenicity”.

These data come from publication PMC4957076, “Shared mechanism of teratogenicity of anti-angiogenic drugs identified in the chicken embryo model” (Scientific Reports, 2016).
